Test results from paper PMC2533715, “Suppressive Effects of Selected Food Phytochemicals on CD74 Expression in NCI-N87 Gastric Carcinoma Cells” (Journal of Clinical Biochemistry and Nutrition, 2008).
Read-outs that look alike come from different tables or passages of the source.

What was measured:
CD74 = assay: Cell-based ELISA for constitutive CD74 expression; set-up: species or system human
Cell viability (MTT) = conditions: human
[1] = test system: NCI-N87 gastric carcinoma cells; assay: Cell viability (MTT); conditions: NCI-N87 cells, 48 h
H. pylori = conditions: cited from earlier work
NF-κB [2] = test system: NF-κB; set-up: method as in PMID 15589482, PMID 16317159, PMID 9521814, PMID 17420607; conditions: several cell lines; cited from earlier work
in vitro = conditions: human
NF-κB [3] = test system: NF-κB; set-up: method as in PMID 12106602; conditions: MKN45 gastric carcinoma cells co-cultured with H. pylori; cited from earlier work
[4] = test system: H. pylori-infected human gastric mucosal cells; set-up: method as in PMID 17028789; conditions: cited from earlier work
[5] = 4 µM, 48 h, NCI-N87 cells; mean ± average deviation
[6] = 20 µM, 48 h, NCI-N87 cells; mean ± average deviation
[7] = 100 µM, 48 h, NCI-N87 cells; mean ± average deviation
[8] = NCI-N87 cells, 48 h; mean of duplicate experiments; unit printed in b25 only; read-out: IC50 (50% inhibitory concentration) for constitutive CD74 expression
[9] = NCI-N87 gastric carcinoma cells

| Compound | IR (%) inhibition rate of CD74 expression (CD74; [5]) | IR (%) inhibition rate of CD74 expression (CD74; [6]) | IR (%) inhibition rate of CD74 expression (CD74; [7]) | IC50 (CD74; [8]) | CC50 at 48 h (Cell viability (MTT)) | viability at 48 h, 4 µM (Cell viability (MTT); [9]) | viability at 48 h, 20 µM (Cell viability (MTT); [9]) | viability at 48 h, 100 µM (Cell viability (MTT); [9]) | also measured |
| --- | --- | --- | --- | --- | --- | --- | --- | --- | --- |
| COc1cc(/C=C/C(=O)O)ccc1O [Ferulic acid] | −5.1 ± 4.3% | 15 ± 5.8% | 20 ± 3.8% | > 100 µM | > 100 µM | 96 ± 2.3% | 93 ± 0.7% | 82 ± 5.9% | – |
| Oc1cc(O)c2c(c1)O[C@@H](c1ccc(O)c(O)c1)[C@H](O)C2 [(−)-Catechin] | −6.4 ± 2.0% | 40 ± 2.1% | 65 ± 0.8% | 69.2 µM | – | 97 ± 2.5% | 97 ± 3.3% | 89 ± 5.9% | IR (%) inhibition rate of CD74 expression (CD74; 20 µM, 48 h, NCI-N87 cells; mean ± average deviation; listed as (−)-catechin): 40–65%; Suppression of CD74 expression (in words) (CD74; NCI-N87 cells, 48 h): suppressive only at a high concentration; CC50 at 48 h (Cell viability (MTT); [9]): > 100 µM; Cytotoxicity (in words) [1]: Marginal cytotoxicity |
| CC(C)=CCC/C(C)=C/COc1ccc2ccc(=O)oc2c1 [Auraptene] | 2.4 ± 2.0% | 50 ± 0.4% | – | 19.8 µM | 59.2 µM | 96 ± 2.7% | 79 ± 4.5% | 18 ± 0.4% | IR (%) inhibition rate of CD74 expression (CD74; 20 µM, 48 h, NCI-N87 cells; mean ± average deviation; listed as auraptene): 40–65%; Suppression of CD74 expression (in words) (CD74; NCI-N87 cells, 48 h): significant activity; H. pylori colonization (H. pylori; in vivo): reduce |
| C=C[C@H](OC(C)=O)c1ccc(OC(C)=O)cc1 [ACA, 1'-acetoxychavicol acetate] | 16 ± 1.6% | – | – | < 20 µM | – | 92 ± 3.4% | 20 ± 0.2% | 6.1 ± 0.3% | CC50 at 48 h (Cell viability (MTT); [9]): 25 µM |
| Cn1c(=O)c2c(ncn2C)n(C)c1=O [Caffeine] | 10 ± 7.7% | 22 ± 6.9% | 41 ± 9.2% | > 100 µM | – | 100 ± 2.6% | 100 ± 2.2% | 87 ± 1.9% | – |
| COc1ccc(-c2cc(=O)c3c(OC)c(OC)c(OC)c(OC)c3o2)cc1 [Tangeretin] | −3.3 ± 3.3% | 21 ± 3.1% | – | 39.5 µM | > 100 µM | 98 ± 2.7% | 100 ± 0.5% | 63 ± 3.1% | Suppression of CD74 expression (in words) (CD74; NCI-N87 cells, 48 h): significant activity |
| C/C1=C\CC(C)(C)/C=C/C(=O)/C(C)=C/CC1 [Zerumbone] | 6.6 ± 0.8% | 57 ± 0.2% | – | 17.7 µM | – | 100 ± 0.4% | 77 ± 0.3% | 16 ± 1.1% | NF-κB inhibition (NF-κB [2]): markedly inhibit; IR (%) inhibition rate of CD74 expression (CD74; 20 µM, 48 h, NCI-N87 cells; mean ± average deviation; listed as zerumbone): 40–65%; CC50 at 48 h (Cell viability (MTT); [9]): 60.5 µM |
| COc1ccc(-c2cc(=O)c3c(OC)c(OC)c(OC)c(OC)c3o2)cc1OC [Nobiletin] | 1.8 ± 2.9% | 54 ± 5.0% | – | 18.8 µM | > 100 µM | 96 ± 0.3% | 93 ± 0.5% | 58 ± 5% | NF-κB inhibition (NF-κB [2]): markedly inhibit; IR (%) inhibition rate of CD74 expression (CD74; 20 µM, 48 h, NCI-N87 cells; mean ± average deviation; listed as nobiletin): 40–65%; Suppression of CD74 expression (in words) (CD74; NCI-N87 cells, 48 h): significant activity |
| C[C@H]1[C@H](C)CC[C@]2(C(=O)O)CC[C@]3(C)C(=CC[C@@H]4[C@@]5(C)CC[C@H](O)C(C)(C)[C@@H]5CC[C@]43C)[C@H]12 [Ursolic acid] | 35 ± 6.1% | – | – | < 20 µM | – | 91 ± 1.6% | 38 ± 1.1% | 9.7% | CC50 at 48 h (in vitro): 35.4 µM |
| O=C1O[C@H]([C@@H](O)CO)C(O)=C1O [Ascorbic acid] | –12 ± 3.5% | 5.4 ± 3.8% | 6.8 ± 1.8% | > 100 µM | > 100 µM | 97 ± 1.7% | 94 ± 0.3% | 86 ± 5.8% | IR (%) inhibition rate of CD74 expression (CD74; 100 µM, 48 h, NCI-N87 cells; mean ± average deviation; listed as ascorbic acid): did not suppress CD74; H. pylori colonization and subsequent inflammation (H. pylori; Mongolian gerbils): reduced |
| S=C=NCc1ccccc1 [BITC, benzyl isothiocyanate] | –19 ± 0.6% | – | – | < 20 µM | 44.3 µM | 96 ± 3.4% | 56 ± 7.9% | – | viability at 48 h, 100 µM (in vitro): 6.1 ± 1.3% |
| C=CCCN=C=S [BUITC, butenyl isothiocyanate] | –9.0 ± 0.4% | 2.3 ± 0.8% | – | – | 81.5 µM | 71 ± 5.8% | 73 ± 3.3% | 44 ± 2.4% | IC50 (CD74; read-out: IC50 (50% inhibitory concentration) for constitutive CD74 expression; NCI-N87 cells, 48 h; mean of duplicate experiments; unit printed in b25 only): > 100 µM |
| O=c1c(-c2ccc(O)cc2)coc2cc(O)cc(O)c12 [Genistein] | 8.6 ± 7.8% | 49 ± 7.2% | – | 20.5 µM | > 100 µM | 100 ± 0.4% | 84 ± 1.5% | 55 ± 4.6% | IR (%) inhibition rate of CD74 expression (CD74; 20 µM, 48 h, NCI-N87 cells; mean ± average deviation; listed as genistein): 40–65%; NF-κB activation (NF-κB [3]): decreased |
| COc1cc(/C=C/C(=O)CC(=O)/C=C/c2ccc(O)c(OC)c2)ccc1O [Curucumin, curcumin] | 21 ± 8.0% | – | – | < 20 µM | – | 89 ± 1.1% | 12 ± 1.9% | 14 ± 6.8% | CC50 at 48 h (in vitro): 44.3 µM |
| S=C=NCCc1ccccc1 [PEITC, phenetyl isothiocyanate] | −17 ± 2.3% | – | – | < 20 µM | 61.3 µM | – | – | – | viability at 48 h, 4 µM (in vitro): 97 ± 4.8%; viability at 48 h, 20 µM (in vitro): 43 ± 1.8%; viability at 48 h, 100 µM (in vitro): 37 ± 2.2% |
| CC(C)=CC(=O)CC(C)c1ccc(C)cc1 (stereo not shown) [ar-Turmerone] | 22 ± 0.5% | 39 ± 1.8% | – | 30.8 µM | > 100 µM | 97 ± 4.1% | 100 ± 3.2% | 57 ± 1.3% | – |
| O=C(O)c1cc(O)c(O)c(O)c1 [Gallic acid] | 15 ± 2.4% | 57 ± 3.7% | 47 ± 8.3% | 96.4 µM | > 100 µM | 97 ± 0.2% | 73 ± 2.4% | 97 ± 2.1% | IR (%) inhibition rate of CD74 expression (CD74; 20 µM, 48 h, NCI-N87 cells; mean ± average deviation; listed as gallic acid): 40–65% |
| C=CCC/C(=N/OS(=O)(=O)O)S[C@@H]1O[C@H](CO)[C@@H](O)[C@H](O)[C@H]1O [BUGLS, gluconapin] | –15 ± 0.0% | −19 ± 2.5% | 4.0 ± 1.0% | > 100 µM | – | 88 ± 6.9% | 80 ± 3.5% | 79 ± 5.6% | CC50 at 48 h (Cell viability (MTT); [9]): > 100 µM |
| O=S(=O)(O)O/N=C(/CCc1ccccc1)S[C@@H]1O[C@H](CO)[C@@H](O)[C@H](O)[C@H]1O [PEGLS, gluconasturtiin] | −11 ± 4.4% | −25 ± 1.3% | −13 ± 3.8% | > 100 µM | – | 99 ± 1.4% | 88 ± 1.7% | 90 ± 1.4% | CC50 at 48 h (Cell viability (MTT); [9]): > 100 µM |
| O=c1c(O)c(-c2ccc(O)c(O)c2)oc2cc(O)cc(O)c12 [Quercetin] | 3.7 ± 0.0% | 51 ± 4.7% | – | 19.8 µM | > 100 µM | 100 ± 3% | 100 ± 3% | 51 ± 0.5% | N-methyl-N’-nitro-N-nitrosoguanidine-induced inflammation [4]: reduced; NF-κB inhibition (NF-κB [2]): markedly inhibit; IR (%) inhibition rate of CD74 expression (CD74; 20 µM, 48 h, NCI-N87 cells; mean ± average deviation; listed as quercetin): 40–65% |
| O=c1cc(-c2ccc(O)c(O)c2)oc2cc(O)cc(O)c12 [Luteolin] | 4.0 ± 5.1% | 55 ± 1.2% | – | 18.4 µM | – | 99 ± 2.9% | 81 ± 4.7% | 61 ± 1.5% | NF-κB inhibition (NF-κB [2]): markedly inhibit; CC50 at 48 h (in vitro): > 100 µM; IR (%) inhibition rate of CD74 expression (CD74; 20 µM, 48 h, NCI-N87 cells; mean ± average deviation; listed as luteolin): 40–65% |
| C[C@@H]1O[C@@H](OC[C@H]2O[C@@H](Oc3c(-c4ccc(O)c(O)c4)oc4cc(O)cc(O)c4c3=O)[C@H](O)[C@@H](O)[C@@H]2O)[C@H](O)[C@H](O)[C@H]1O [Rutin] | −4.3 ± 2.8% | −3.0 ± 0.0% | 11 ± 4.5% | > 100 µM | > 100 µM | 97 ± 1.2% | 100 ± 1.1% | 80 ± 4.7% | – |
